Assays:
[1] = Surface tension at serial dilutions (CMC value determination), automatic interfacial tensiometer; assay type: physicochemical
Protocol: A 0.1% surfactin HXRZ solution and a sodium deoxycholate solution were separately prepared using purified water, followed by serial dilution to obtain different gradient concentrations. The surface tensions at different concentrations were determined respectively via a JZ-200A automatic interfacial tensiometer. Table 1 CMC value determination results

[2] = tested on: Mouse adipocyte cell line 3T3-F442A; test: In vitro cytotoxicity test: relative growth rate of cells by CCK-8; assay type: cell-based
Protocol: In accordance with GB/T 16886.5 Biological evaluation of medical devices-Part 5: In vitro cytotoxicity tests (GB/T 16886.5-2017/ISO 10993-5:2009, IDT), and the test was performed with reference to the methods specified therein. The detailed experimental procedures are as follows:
Mouse adipocyte cell line 3T3-F442A in the logarithmic growth phase was seeded into a 96-well plate at a density of 1×10^5 cells/mL, with 100 µL per well. The culture medium consisted of a basal culture medium supplemented with 10% fetal bovine serum. The seeded cells were incubated conventionally in a carbon dioxide incubator at 37°C and 5% CO2 for 24 h.
The solution was freshly prepared before use.
After routine incubation for 24 h, the old culture medium was discarded, and then 100 µL of sample solution was added to replace it in the experimental group. An equal volume of serum-free culture medium was added to the normal control group. Each concentration was set up with at least three replicate wells.
After another incubation for 24 h, the relative growth rate of cells was detected by CCK-8. The culture medium was discarded, 100 µL of CCK-8 diluted 10-fold with the serum-free medium was added to each well. The plate was incubated in a cell incubator for another 2 h. The absorbance was determined using a microplate reader at a wavelength of 450 nm. The relative growth rate (RGR) is a ratio of the absorbance of the experimental group to the absorbance of the normal control group.
The experimental procedures in Example 3 were the same as those in Example 2 except that treatment durations were 0.5 h, 4 h and 24 h. The determination results of the relative growth rates of 3T3-F442A cells treated with surfactin HXRZ and sodium deoxycholate for different durations are shown in Table 3. Table 3 Relative growth rate (%)
3T3-F442A mouse adipocytes in the logarithmic growth phase were seeded into a 96-well plate at a density of 1 × 10^5 cells/mL, with 100 µL per well. After incubation for 24 h, the culture medium was replaced with 100 µL of culture medium containing different concentrations of samples. An equal volume of serum-free culture medium was added to the blank control group, and the incubation was continued for another 24 h. The relative growth rate of cells was determined by CCK-8. The blank control was set as 100%, the relative growth rate and half inhibitory concentration of each group were calculated. The method was the same as that in Example 2.

[3] = tested on: transgenic obese (ob/ob) mice; test: Degradation of gluteal adipose tissue after injection into adipose pads of the left buttock (H-E sections, site observation); assay type: in vivo; conditions: Example 4, 1 %
Protocol: 6-week-old transgenic obese (ob/ob) mice were used as the animal model. Different drugs were injected into the adipose pads of the left buttock. The mice were totally divided into three groups with 7-10 mice per group, as specified below. • 1) Negative control group: injected with 200 µL of sterile normal saline; • 2) 1% sodium deoxycholate group: injected with 200 µL of sterile normal saline solution containing 1% sodium deoxycholate; • 3) 0.1% surfactin HXRZ group: injected with 200 µL of sterile normal saline solution containing 0.1% surfactin HXRZ.
The day of the first administration was defined as Day 1 of the experiment. Additional administrations were performed on Day 3 and Day 5, respectively. The general condition and administration sites of the mice were observed regularly throughout the experiment. On Day 21 of the experiment, the mice were sacrificed and dissected. The adipose tissue of the left buttock was isolated, fixed immediately in adipose tissue fixative, and then embedded in paraffin. The adipose tissue was stained by hematoxylin and eosin staining for pathological examination, followed by observation and analysis under an optical microscope.
Specifically, 6-week-old transgenic obese (ob/ob) mice were used as the animal model, with one mouse per group. 200 µL each of 0.5% and 1% surfactin HXRZ normal saline solutions (test samples) were injected into the adipose pads of the left buttock, respectively. The day of the first administration was defined as Day 1 of the experiment. Additional administrations were performed on Day 3 and Day 5, respectively. The general condition and administration sites of the mice were observed regularly throughout the experiment. On Day 21 of the experiment, the mice were sacrificed and dissected. The adipose tissue of the left buttock of the mice was isolated, fixed immediately in adipose tissue fixative, and then embedded in paraffin. The adipose tissue was stained by hematoxylin and eosin staining for pathological examination, followed by observation and analysis under an optical microscope.

Kunming mice [4] = test: Preliminary study on degradation of inguinal adipose tissue, subcutaneous injection once every 7 days; assay type: in vivo; conditions: for ulceration at the administration sites: 200 µL s.c. left inguinal, after two administrations, n = 3
Protocol: Administration was performed once every 7 days. […] 7-9.

Kunming mice [5] = test: Efficacy and side effects on degradation of inguinal adipose tissue, subcutaneous injection once every 14 days; assay type: in vivo; conditions: 1 %; for Adipocyte density (n/mm^2): day 42, M±SEM
Protocol: The adipocyte density was then calculated.
Table 6 Local inflammation in mice of each group

Female Kunming mice = test: Animal experiment comparing surfactin-C14 and surfactin-C15: subcutaneous injection in right inguinal region, four administrations; assay type: in vivo
Source text: The higher drug concentration indicated the more obvious effect.

[6] = Observation of solubility in water; assay type: physicochemical; conditions: added to water; room temperature
[7] = tested on: Mouse adipocyte cell line 3T3-F442A; test: In vitro cytotoxicity test: relative growth rate of cells by CCK-8; assay type: cell-based; conditions: 0.5 mg/mL
[8] = 10 mg/mL, four administrations, H-E sections

Sodium deoxycholate
Surface tension value ([1]; solution concentration 0.00078125 % in purified water): 68.51 mN/m | Surface tension value ([1]; solution concentration 0.0015625 % in purified water): 66.57 mN/m | Surface tension value ([1]; solution concentration 0.003125 % in purified water): 65.06 mN/m | Surface tension value ([1]; solution concentration 0.00625 % in purified water): 63.17 mN/m | Surface tension value ([1]; solution concentration 0.0125 % in purified water): 60.50 mN/m | Surface tension value ([1]; solution concentration 0.025 % in purified water): 57.94 mN/m | Surface tension value ([1]; solution concentration 0.05 % in purified water): 55.40 mN/m | Surface tension value ([1]; solution concentration 0.1 % in purified water): 53.47 mN/m | Surface tension value ([1]; solution concentration 0.1 % in purified water, listed as sodium deoxycholate): 53 mN/m | treatment time at which adipocytes were completely lysed ([2]; 0.5 mg/mL): 0.5 h | half maximal inhibitory concentrations IC50 ([2]; 3T3-F442A adipocytes, 24 h, calculated from Table 2 curves): 260.5 µg/mL | Relative growth rate (%) ([2]; Example 2, 0.125 mg/mL, 24 h, 3T3-F442A): 98.64±1.74% | Relative growth rate (%) ([2]; Example 2, 0.25 mg/mL, 24 h, 3T3-F442A): 55.58±3.66% | Relative growth rate (%) ([2]; Example 2, 0.3 mg/mL, 24 h, 3T3-F442A): 23.83±3.45% | Relative growth rate (%) ([2]; Example 2, 0.4 mg/mL, 24 h, 3T3-F442A): 10.92±0.48% | Relative growth rate (%) ([2]; Example 2, 0.5 mg/mL, 24 h, 3T3-F442A): 10.7±0.11% | Relative growth rate (%) ([2]; Example 3, 0.3 mg/mL, 0.5 h): 71.17±4.00% | Relative growth rate (%) ([2]; Example 3, 0.3 mg/mL, 4 h): 61.46±9.30% | Relative growth rate (%) ([2]; Example 3, 0.3 mg/mL, 24 h): 10.70±3.45% | Relative growth rate (%) ([2]; Example 3, 0.4 mg/mL, 0.5 h): 28.78±6.59% | Relative growth rate (%) ([2]; Example 3, 0.4 mg/mL, 4 h): 23.81±1.24% | Relative growth rate (%) ([2]; Example 3, 0.4 mg/mL, 24 h): 10.92±0.48% | Relative growth rate (%) ([2]; Example 3, 0.5 mg/mL, 0.5 h): 12.78±0.67% | Relative growth rate (%) ([2]; Example 3, 0.5 mg/mL, 4 h): 17.24±0.02% | Relative growth rate (%) ([2]; Example 3, 0.5 mg/mL, 24 h): 10.69±0.11% | degradation of adipose tissue at the administration sites (H-E sections, FIG. 5) ([3]; 200 µL in normal saline, left buttock, Days 1, 3, 5, Day 21): induced the degradation of adipose tissue at the administration sites | mice with obvious induration palpable at the administration sites ([3]; 200 µL, 7-10 mice per group): three | mice with ulceration at the administration site ([3]; 200 µL, 7-10 mice per group): one | ulceration at the administration sites (Kunming mice [4]; 1 %): visible ulceration was observed at the administration sites | healing of ulceration (Kunming mice [4]; 1 %, after a 7-day administration interval): healed completely | ulceration at the administration sites (Kunming mice [4]; 2 %): ulceration occurred at the administration sites in all mice | healing of ulcers (Kunming mice [4]; 2 %, within the subsequent 7 days): failed to heal | Adipose tissue weight (Kunming mice [5]; 200 µL s.c. left inguinal, once every 14 days, day 42, n = 9): 0.1889 ± 0.0270 g | Adipocyte density (n/mm^2) (Kunming mice [5]; 200 µL s.c.): 727.84±56.64 n/mm^2 | Adipocyte density (n/mm^2) (Kunming mice [5]; 200 µL s.c., listed as sodium deoxycholate): 727.84±56.64 n/mm^2 | Fat index (%) (Kunming mice [5]; 200 µL s.c., day 42, treated-side inguinal adipose weight/body weight × 100%): 0.49±0.07 % | Subcutaneous nodule and induration (Kunming mice [5]; Day 1, number of mice (n = 9)): 0 | Ulceration (Kunming mice [5]; Day 1, number of mice (n = 9)): 0 | Subcutaneous nodule and induration (Kunming mice [5]; Day 7, number of mice (n = 9)): 0 | Ulceration (Kunming mice [5]; Day 7, number of mice (n = 9)): 2 | Subcutaneous nodule and induration (Kunming mice [5]; Day 14, number of mice (n = 9)): 2 | Ulceration (Kunming mice [5]; Day 14, number of mice (n = 9)): 0 | Subcutaneous nodule and induration (Kunming mice [5]; Day 21, number of mice (n = 9)): 8 | Ulceration (Kunming mice [5]; Day 21, number of mice (n = 9)): 0 | Subcutaneous nodule and induration (Kunming mice [5]; Day 28, number of mice (n = 9)): 5 | Ulceration (Kunming mice [5]; Day 28, number of mice (n = 9)): 0 | Subcutaneous nodule and induration (Kunming mice [5]; Day 35, number of mice (n = 9)): 4 | Ulceration (Kunming mice [5]; Day 35, number of mice (n = 9)): 0 | Subcutaneous nodule and induration (Kunming mice [5]; Day 42, number of mice (n = 9)): 4 | Ulceration (Kunming mice [5]; Day 42, number of mice (n = 9)): 0 | ulceration at the administration sites over the administration cycle (Kunming mice [5]; entire administration cycle): ulceration was observed at the administration sites | Incidence of local adverse reactions, Fourth administration (Female Kunming mice; 10 mg/mL, 200 µL s.c.): 83.33% | Incidence of local adverse reactions, Second administration (Female Kunming mice; 10 mg/mL, 200 µL s.c.): 75.00% | Incidence of local adverse reactions, Third administration (Female Kunming mice; 10 mg/mL, 200 µL s.c.): 66.67% | Incidence of local adverse reactions, First administration (Female Kunming mice; 10 mg/mL, 200 µL s.c., percentage of mice with abnormalities at the administration site): 62.50% | Mean wet adipose tissue weight/body weight percentage (x±SEM, %) (Female Kunming mice; 10 mg/mL, four administrations): 0.57±0.05 % | Mean wet adipose tissue weight (x±SEM, unit: g) (Female Kunming mice; 10 mg/mL, four administrations once every 14 days, right inguinal): 0.224 ± 0.022 g | Mean adipocyte area (x±SEM, mm^2) (Female Kunming mice; [8]): 0.003751±0.000614 mm^2 | Mean adipocyte density (x±SEM, n/mm^2) (Female Kunming mice; [8]): 322.3211±55.3047 n/mm^2 | incidence of adverse reactions (Female Kunming mice; over all four administrations, except first administration in the HXRZ-B high-dose group): exceeded 60% | solubility in water [6]: poorly soluble | cell morphology of adipocytes (inverted microscope, FIG. 4) ([7]; 4 h): nearly all cells died | cell morphology of adipocytes (inverted microscope, FIG. 4) ([7]; 24 h): nearly all cells died

— EP4744648A1, “LIPOPEPTIDE-CONTAINING FAT-DISSOLVING PRODUCT, AND PREPARATION METHOD THEREFOR AND USE THEREOF” (Bloomage Biotechnology Corporation Limited, priority 2023, dated 2024)
